Measurements published in ChEMBL document CHEMBL4387729, “Synthesis and structure-activity relationship of 4-alkoxy-thieno[2,3-b]pyridine derivatives as potent alkaline phosphatase enhancers for osteoporosis treatment” (Bioorg Med Chem Lett, 2019).

Columns and labels:
[1] = target: T1, Alkaline phosphatase, tissue-nonspecific isozyme (Mus musculus) (UniProt P09242); test: Induction of alkaline phosphatase activity in mouse ST-2 cells after 4 days by spectrophotometric method; type: cell-based
T1 sequence (whole entry): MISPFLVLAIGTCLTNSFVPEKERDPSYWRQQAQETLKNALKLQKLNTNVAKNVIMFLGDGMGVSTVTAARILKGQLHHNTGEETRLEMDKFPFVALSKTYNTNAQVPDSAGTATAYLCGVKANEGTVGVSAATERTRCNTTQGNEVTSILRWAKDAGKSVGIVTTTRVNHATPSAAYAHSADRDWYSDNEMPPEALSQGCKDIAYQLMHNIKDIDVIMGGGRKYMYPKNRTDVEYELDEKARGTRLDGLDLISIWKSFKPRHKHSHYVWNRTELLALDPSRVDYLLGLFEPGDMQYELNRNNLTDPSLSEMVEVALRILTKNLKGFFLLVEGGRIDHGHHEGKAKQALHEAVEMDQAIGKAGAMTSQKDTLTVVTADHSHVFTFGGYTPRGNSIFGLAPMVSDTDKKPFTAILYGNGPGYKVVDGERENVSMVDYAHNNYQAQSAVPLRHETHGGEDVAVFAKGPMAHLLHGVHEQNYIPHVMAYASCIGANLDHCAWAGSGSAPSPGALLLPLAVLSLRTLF

CYP2C19 = CYP2C19 (Homo sapiens, UniProt P33261); test: Inhibition of CYP2C19 (unknown origin) at 10 uM relative to control; type: ADME
Chain of CYP2C19 (P33261 whole entry): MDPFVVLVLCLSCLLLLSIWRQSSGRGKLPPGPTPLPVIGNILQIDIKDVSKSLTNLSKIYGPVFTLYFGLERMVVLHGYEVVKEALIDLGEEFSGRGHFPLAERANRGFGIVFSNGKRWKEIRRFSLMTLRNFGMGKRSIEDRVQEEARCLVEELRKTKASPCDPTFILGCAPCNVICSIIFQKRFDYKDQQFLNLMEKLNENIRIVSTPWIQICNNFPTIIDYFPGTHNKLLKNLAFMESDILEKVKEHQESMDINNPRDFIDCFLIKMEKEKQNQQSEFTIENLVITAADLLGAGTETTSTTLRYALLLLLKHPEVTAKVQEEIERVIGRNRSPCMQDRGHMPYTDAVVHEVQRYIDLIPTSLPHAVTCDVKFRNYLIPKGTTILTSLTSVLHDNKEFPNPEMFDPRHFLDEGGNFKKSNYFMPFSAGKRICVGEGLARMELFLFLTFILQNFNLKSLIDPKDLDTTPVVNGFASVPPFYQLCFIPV

CYP2D6 = CYP2D6 (Homo sapiens, UniProt P10635); test: Inhibition of CYP2D6 (unknown origin) at 10 uM relative to control; type: ADME
Chain of CYP2D6 (P10635 whole entry): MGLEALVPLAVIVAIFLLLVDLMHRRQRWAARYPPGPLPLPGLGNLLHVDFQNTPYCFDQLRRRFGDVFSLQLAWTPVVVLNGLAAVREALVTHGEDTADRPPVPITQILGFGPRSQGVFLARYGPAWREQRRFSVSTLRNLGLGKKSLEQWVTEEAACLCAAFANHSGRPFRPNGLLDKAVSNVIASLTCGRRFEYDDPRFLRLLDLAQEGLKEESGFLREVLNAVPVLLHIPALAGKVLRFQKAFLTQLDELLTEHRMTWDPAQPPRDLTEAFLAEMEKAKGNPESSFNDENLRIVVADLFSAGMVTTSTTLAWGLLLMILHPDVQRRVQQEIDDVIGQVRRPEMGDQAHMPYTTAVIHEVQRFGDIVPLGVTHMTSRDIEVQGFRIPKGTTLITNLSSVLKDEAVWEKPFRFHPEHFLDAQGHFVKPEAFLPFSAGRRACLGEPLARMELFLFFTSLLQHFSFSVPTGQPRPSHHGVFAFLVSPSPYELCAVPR

CYP3A4 [2] = target: T2, CYP3A4 (Homo sapiens, UniProt P08684); test: in vitro; conditions: human liver microsomes
T2 sequence (P08684 whole entry): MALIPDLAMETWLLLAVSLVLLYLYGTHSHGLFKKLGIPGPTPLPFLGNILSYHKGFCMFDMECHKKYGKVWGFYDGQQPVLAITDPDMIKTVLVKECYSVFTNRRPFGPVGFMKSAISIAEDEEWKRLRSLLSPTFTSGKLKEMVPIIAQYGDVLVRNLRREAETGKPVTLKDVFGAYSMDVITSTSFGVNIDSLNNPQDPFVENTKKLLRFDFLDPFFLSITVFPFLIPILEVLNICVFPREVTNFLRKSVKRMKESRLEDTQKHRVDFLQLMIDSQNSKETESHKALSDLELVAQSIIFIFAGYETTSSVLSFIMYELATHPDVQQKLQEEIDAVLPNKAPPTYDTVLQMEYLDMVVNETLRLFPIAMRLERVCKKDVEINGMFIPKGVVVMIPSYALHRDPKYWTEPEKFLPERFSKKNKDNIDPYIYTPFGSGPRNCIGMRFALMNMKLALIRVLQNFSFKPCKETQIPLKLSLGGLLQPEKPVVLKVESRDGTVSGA
Description: Time dependent inhibition of CYP3A4 in human liver microsomes assessed as enzyme residual activity at 100 uM relative to control

CYP3A4 [3] = target: T2, CYP3A4; test: in vitro
CYP2C9 = CYP2C9 (Homo sapiens, UniProt P11712); test: Inhibition of CYP2C9 (unknown origin) at 10 uM relative to control; type: ADME
Chain of CYP2C9 (P11712 whole entry): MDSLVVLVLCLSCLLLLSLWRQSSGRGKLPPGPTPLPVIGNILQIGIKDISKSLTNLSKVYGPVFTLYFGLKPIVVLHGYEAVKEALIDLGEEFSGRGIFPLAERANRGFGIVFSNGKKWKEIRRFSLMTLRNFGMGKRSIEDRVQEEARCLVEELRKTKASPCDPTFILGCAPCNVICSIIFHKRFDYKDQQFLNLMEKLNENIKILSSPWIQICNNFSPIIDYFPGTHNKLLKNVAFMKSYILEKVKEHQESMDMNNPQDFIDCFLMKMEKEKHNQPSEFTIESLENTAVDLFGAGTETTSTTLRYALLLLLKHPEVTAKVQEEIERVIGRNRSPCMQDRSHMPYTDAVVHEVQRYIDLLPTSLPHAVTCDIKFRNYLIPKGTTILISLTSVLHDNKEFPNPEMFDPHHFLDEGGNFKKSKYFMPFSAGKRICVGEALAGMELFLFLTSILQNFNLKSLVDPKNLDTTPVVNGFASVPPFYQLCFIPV

CYP1A2 = target: T3, CYP1A2 (Homo sapiens, UniProt P05177); test: Inhibition of CYP1A2 (unknown origin) at 10 uM relative to control; type: ADME
T3 sequence (P05177 whole entry): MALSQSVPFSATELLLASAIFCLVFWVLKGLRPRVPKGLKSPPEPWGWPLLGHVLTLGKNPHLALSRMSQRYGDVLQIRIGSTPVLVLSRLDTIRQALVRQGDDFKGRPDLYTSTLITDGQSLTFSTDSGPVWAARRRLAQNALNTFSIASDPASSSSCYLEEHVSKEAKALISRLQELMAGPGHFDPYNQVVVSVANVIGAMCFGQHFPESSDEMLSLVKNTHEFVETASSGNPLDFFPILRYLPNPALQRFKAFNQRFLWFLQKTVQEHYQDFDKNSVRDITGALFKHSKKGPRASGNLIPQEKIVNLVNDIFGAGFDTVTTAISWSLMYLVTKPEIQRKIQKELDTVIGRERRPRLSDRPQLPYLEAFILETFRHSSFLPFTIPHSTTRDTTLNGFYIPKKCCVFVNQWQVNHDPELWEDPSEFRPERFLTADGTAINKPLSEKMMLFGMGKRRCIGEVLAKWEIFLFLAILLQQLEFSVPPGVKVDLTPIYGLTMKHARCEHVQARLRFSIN

Compound | EC200 [1] [µg/mL] | further results
CN(C)C(=O)COc1ccc(Oc2ccnc3sc(C(N)=O)c(N)c23)cc1 | 0.023 | –
CC(C)c1ccc(Oc2ccnc3sc(C(N)=O)c(N)c23)cc1 | > 0.3 | –
NC(=O)c1sc2nccc(N3CCCN(c4ccccc4)CC3)c2c1N | – | inhibition at 10 µM (CYP2C19): 96%; inhibition at 10 µM (CYP2D6): 34%; activity at 100 µM (CYP3A4 [2]): 28%; inhibition at 10 µM (CYP3A4 [3]): 49%; inhibition at 10 µM (CYP2C9): 71%; inhibition at 10 µM (CYP1A2): 14%
C[C@H]1CC[C@@H](Oc2ccnc3sc(C(N)=O)c(N)c23)CC1 | > 1 | –
CCc1ccccc1Oc1ccnc2sc(C(N)=O)c(N)c12 | 0.201 | –
NC(=O)c1sc2nccc(Oc3ccccc3F)c2c1N | 0.022 | –
NC(=O)c1sc2nccc(SC3CCCCC3)c2c1N | > 1 | –
CCOc1ccnc2sc(C(N)=O)c(N)c12 | 0.27 | –
COc1ccnc2sc(C(N)=O)c(N)c12 | > 1 | –
COc1ccc(Oc2ccnc3sc(C(N)=O)c(N)c23)c(Cl)c1 | 0.008 | –
N#Cc1ccc(Oc2ccnc3sc(C(N)=O)c(N)c23)cc1 | 0.227 | –
CN(C)C(=O)c1ccc(Oc2ccnc3sc(C(N)=O)c(N)c23)cc1 | > 0.3 | –
COc1ccc(Oc2ccnc3sc(C(N)=O)c(N)c23)cc1 | 0.02 | –
C[C@@H]1CCC[C@H](Oc2ccnc3sc(C(N)=O)c(N)c23)C1 (relative stereo) | > 1 | –
C[C@H]1CC[C@H](Oc2ccnc3sc(C(N)=O)c(N)c23)CC1 | 0.037 | –
CN(C)C(=O)CCCc1ccc(Oc2ccnc3sc(C(N)=O)c(N)c23)cc1 | 0.004 | –
NC(=O)c1sc2nccc(Oc3ccccc3Cl)c2c1N | 0.008 | –
C[C@H]1COCC[C@@H]1Oc1ccnc2sc(C(N)=O)c(N)c12 | 0.27 | –
NC(=O)c1sc2nccc(Oc3cccc(Cl)c3)c2c1N | 0.149 | –
